{"source": "PubChem BioAssay (NCI)", "test_in_all_cases": "NCI anticancer screen, dose series, 48 h", "key": {"A498 renal": {"test_system": "A498 renal"}, "NCI-H23 lung": {"test_system": "NCI-H23 lung"}, "MOLT-4 leukemia": {"test_system": "MOLT-4 leukemia"}, "SR leukemia": {"test_system": "SR leukemia"}, "786-0 renal": {"test_system": "786-0 renal"}, "HCT-15 colon": {"test_system": "HCT-15 colon"}, "NCI-H460 lung": {"test_system": "NCI-H460 lung"}, "HS 578T breast": {"test_system": "HS 578T breast"}, "MDA-MB-231 breast": {"test_system": "MDA-MB-231 breast"}, "MDA-MB-435": {"test_system": "MDA-MB-435"}}, "note": "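These data come from cells grown in 96-well plates and exposed to compound for 48 hours at five concentrations. The concentration for 50% growth inhibition is given as GI50. TGI: concentration producing complete growth inhibition.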", "data": [{"smiles": "COc1cccc(-c2cc(=O)c3ccccc3[nH]2)c1", "values": [{"measurement": "TGI", "setting": "A498 renal", "value": "> 100", "unit": "µM"}, {"measurement": "TGI", "setting": "NCI-H23 lung", "value": "> 100", "unit": "µM"}, {"measurement": "TGI", "setting": "MOLT-4 leukemia", "value": "> 100", "unit": "µM"}, {"measurement": "TGI", "setting": "SR leukemia", "value": "> 100", "unit": "µM"}, {"measurement": "TGI", "setting": "786-0 renal", "value": "> 100", "unit": "µM"}, {"measurement": "TGI", "setting": "HCT-15 colon", "value": "> 100", "unit": "µM"}, {"measurement": "TGI", "setting": "NCI-H460 lung", "value": "> 100", "unit": "µM"}]}, {"smiles": "COc1cc2c3c(n(C)c(=O)c2cc1OC)-c1ccc(C#N)cc1C3=O", "values": [{"measurement": "GI50", "setting": "A498 renal", "value": 64.7, "unit": "µM"}, {"measurement": "TGI", "setting": "A498 renal", "value": "> 100", "unit": "µM"}, {"measurement": "GI50", "setting": "HS 578T breast", "value": "> 100", "unit": "µM"}, {"measurement": "TGI", "setting": "HS 578T breast", "value": "> 100", "unit": "µM"}, {"measurement": "GI50", "setting": "NCI-H23 lung", "value": "> 100", "unit": "µM"}, {"measurement": "TGI", "setting": "NCI-H23 lung", "value": "> 100", "unit": "µM"}, {"measurement": "GI50", "setting": "MOLT-4 leukemia", "value": "> 100", "unit": "µM"}, {"measurement": "TGI", "setting": "MOLT-4 leukemia", "value": "> 100", "unit": "µM"}, {"measurement": "GI50", "setting": "786-0 renal", "value": "> 100", "unit": "µM"}, {"measurement": "TGI", "setting": "786-0 renal", "value": "> 100", "unit": "µM"}, {"measurement": "GI50", "setting": "HCT-15 colon", "value": "> 100", "unit": "µM"}, {"measurement": "TGI", "setting": "HCT-15 colon", "value": "> 100", "unit": "µM"}, {"measurement": "GI50", "setting": "NCI-H460 lung", "value": "> 100", "unit": "µM"}, {"measurement": "TGI", "setting": "NCI-H460 lung", "value": "> 100", "unit": "µM"}, {"measurement": "GI50", "setting": "MDA-MB-231 breast", "value": "> 100", "unit": "µM"}, {"measurement": "TGI", "setting": "MDA-MB-231 breast", "value": "> 100", "unit": "µM"}, {"measurement": "GI50", "setting": "MDA-MB-435", "value": "> 100", "unit": "µM"}, {"measurement": "TGI", "setting": "MDA-MB-435", "value": "> 100", "unit": "µM"}]}, {"smiles": "Cc1ccc(S(=O)(=O)NC(CN)C(=O)O)cc1", "note": "(stereo not drawn)", "values": [{"measurement": "TGI", "setting": "A498 renal", "value": "> 100", "unit": "µM"}, {"measurement": "TGI", "setting": "HS 578T breast", "value": "> 100", "unit": "µM"}, {"measurement": "TGI", "setting": "NCI-H23 lung", "value": "> 100", "unit": "µM"}, {"measurement": "TGI", "setting": "MOLT-4 leukemia", "value": "> 100", "unit": "µM"}, {"measurement": "TGI", "setting": "786-0 renal", "value": "> 100", "unit": "µM"}, {"measurement": "TGI", "setting": "HCT-15 colon", "value": "> 100", "unit": "µM"}, {"measurement": "TGI", "setting": "NCI-H460 lung", "value": "> 100", "unit": "µM"}, {"measurement": "TGI", "setting": "MDA-MB-231 breast", "value": "> 100", "unit": "µM"}, {"measurement": "TGI", "setting": "MDA-MB-435", "value": "> 100", "unit": "µM"}]}, {"smiles": "Nc1c(Cl)ncnc1NCCCNc1ncnc(Cl)c1N", "values": [{"measurement": "TGI", "setting": "A498 renal", "value": "> 100", "unit": "µM"}, {"measurement": "TGI", "setting": "NCI-H23 lung", "value": "> 100", "unit": "µM"}, {"measurement": "TGI", "setting": "MOLT-4 leukemia", "value": "> 100", "unit": "µM"}, {"measurement": "TGI", "setting": "SR leukemia", "value": "> 100", "unit": "µM"}, {"measurement": "TGI", "setting": "786-0 renal", "value": "> 100", "unit": "µM"}, {"measurement": "TGI", "setting": "HCT-15 colon", "value": "> 100", "unit": "µM"}, {"measurement": "TGI", "setting": "NCI-H460 lung", "value": "> 100", "unit": "µM"}]}, {"smiles": "CC1=C(C(=O)Nc2ccc(Cl)c(C(=O)OC(C)C)c2)SCCO1", "values": [{"measurement": "TGI", "setting": "A498 renal", "value": 90.9, "unit": "µM"}, {"measurement": "TGI", "setting": "HS 578T breast", "value": 73.9, "unit": "µM"}, {"measurement": "TGI", "setting": "NCI-H23 lung", "value": 96.3, "unit": "µM"}, {"measurement": "TGI", "setting": "MOLT-4 leukemia", "value": 84.4, "unit": "µM"}, {"measurement": "TGI", "setting": "786-0 renal", "value": "> 100", "unit": "µM"}, {"measurement": "TGI", "setting": "HCT-15 colon", "value": "> 100", "unit": "µM"}, {"measurement": "TGI", "setting": "NCI-H460 lung", "value": 99.6, "unit": "µM"}, {"measurement": "TGI", "setting": "MDA-MB-231 breast", "value": "> 100", "unit": "µM"}, {"measurement": "TGI", "setting": "MDA-MB-435", "value": "> 100", "unit": "µM"}]}, {"smiles": "COc1cc2c(=O)[nH]c3cc([N+](=O)[O-])ccc3c2cc1[N+](=O)[O-]", "values": [{"measurement": "GI50", "setting": "A498 renal", "value": 2.46, "unit": "µM"}, {"measurement": "TGI", "setting": "A498 renal", "value": "> 100", "unit": "µM"}, {"measurement": "GI50", "setting": "HS 578T breast", "value": 23.3, "unit": "µM"}, {"measurement": "TGI", "setting": "HS 578T breast", "value": "> 100", "unit": "µM"}, {"measurement": "GI50", "setting": "NCI-H23 lung", "value": 3.69, "unit": "µM"}, {"measurement": "TGI", "setting": "NCI-H23 lung", "value": "> 100", "unit": "µM"}, {"measurement": "GI50", "setting": "MOLT-4 leukemia", "value": 3.9, "unit": "µM"}, {"measurement": "TGI", "setting": "MOLT-4 leukemia", "value": "> 100", "unit": "µM"}, {"measurement": "GI50", "setting": "SR leukemia", "value": 2.95, "unit": "µM"}, {"measurement": "TGI", "setting": "SR leukemia", "value": "> 100", "unit": "µM"}, {"measurement": "GI50", "setting": "786-0 renal", "value": 11.9, "unit": "µM"}, {"measurement": "TGI", "setting": "786-0 renal", "value": "> 100", "unit": "µM"}, {"measurement": "GI50", "setting": "HCT-15 colon", "value": 7.29, "unit": "µM"}, {"measurement": "TGI", "setting": "HCT-15 colon", "value": "> 100", "unit": "µM"}, {"measurement": "GI50", "setting": "MDA-MB-231 breast", "value": 6.1, "unit": "µM"}, {"measurement": "TGI", "setting": "MDA-MB-231 breast", "value": "> 100", "unit": "µM"}]}, {"smiles": "CN(CCCNC(=O)CCOCCOCCOCCNC(=O)Cc1ccc2ccc3cccc4ccc1c2c34)CCCNc1cc(-c2ccc3ccccc3c2)nc2ccccc12", "values": [{"measurement": "GI50", "setting": "A498 renal", "value": 1.38, "unit": "µM"}, {"measurement": "TGI", "setting": "A498 renal", "value": 2.92, "unit": "µM"}, {"measurement": "GI50", "setting": "HS 578T breast", "value": 1.59, "unit": "µM"}, {"measurement": "TGI", "setting": "HS 578T breast", "value": 11.5, "unit": "µM"}, {"measurement": "GI50", "setting": "NCI-H23 lung", "value": 0.767, "unit": "µM"}, {"measurement": "TGI", "setting": "NCI-H23 lung", "value": 2.1, "unit": "µM"}, {"measurement": "GI50", "setting": "786-0 renal", "value": 0.615, "unit": "µM"}, {"measurement": "TGI", "setting": "786-0 renal", "value": 1.11, "unit": "µM"}, {"measurement": "GI50", "setting": "HCT-15 colon", "value": 1.19, "unit": "µM"}, {"measurement": "TGI", "setting": "HCT-15 colon", "value": 2.81, "unit": "µM"}, {"measurement": "GI50", "setting": "NCI-H460 lung", "value": 0.52, "unit": "µM"}, {"measurement": "TGI", "setting": "NCI-H460 lung", "value": 1.02, "unit": "µM"}, {"measurement": "GI50", "setting": "MDA-MB-231 breast", "value": 0.546, "unit": "µM"}, {"measurement": "TGI", "setting": "MDA-MB-231 breast", "value": 1.06, "unit": "µM"}, {"measurement": "GI50", "setting": "MDA-MB-435", "value": 0.108, "unit": "µM"}, {"measurement": "TGI", "setting": "MDA-MB-435", "value": 0.403, "unit": "µM"}]}, {"smiles": "Cc1ccc(S(=O)(=O)N/N=C(/c2nc3ccc([N+](=O)[O-])cc3[nH]c2=O)C(O)c2ccc(C(O)/C(=N\\NS(=O)(=O)c3ccc(C)cc3)c3nc4ccc([N+](=O)[O-])cc4[nH]c3=O)cc2)cc1", "note": "(stereo not drawn)", "values": [{"measurement": "TGI", "setting": "A498 renal", "value": "> 100", "unit": "µM"}, {"measurement": "TGI", "setting": "NCI-H23 lung", "value": "> 100", "unit": "µM"}, {"measurement": "TGI", "setting": "MOLT-4 leukemia", "value": "> 100", "unit": "µM"}, {"measurement": "TGI", "setting": "786-0 renal", "value": "> 100", "unit": "µM"}, {"measurement": "TGI", "setting": "NCI-H460 lung", "value": "> 100", "unit": "µM"}]}, {"smiles": "CCN1CCN(C(=O)[C@]23CCC(C)(C)C[C@@H]2C2=CC[C@@H]4[C@@]5(C)C/C(=C/c6ccncc6)C(=O)C(C)(C)[C@@H]5CC[C@@]4(C)[C@]2(C)CC3)CC1", "values": [{"measurement": "GI50", "setting": "A498 renal", "value": 1.7, "unit": "µM"}, {"measurement": "TGI", "setting": "A498 renal", "value": 3.1, "unit": "µM"}, {"measurement": "GI50", "setting": "HS 578T breast", "value": 1.58, "unit": "µM"}, {"measurement": "TGI", "setting": "HS 578T breast", "value": 4.16, "unit": "µM"}, {"measurement": "GI50", "setting": "NCI-H23 lung", "value": 1.63, "unit": "µM"}, {"measurement": "TGI", "setting": "NCI-H23 lung", "value": 3.16, "unit": "µM"}, {"measurement": "GI50", "setting": "786-0 renal", "value": 1.68, "unit": "µM"}, {"measurement": "TGI", "setting": "786-0 renal", "value": 3.15, "unit": "µM"}, {"measurement": "GI50", "setting": "HCT-15 colon", "value": 1.25, "unit": "µM"}, {"measurement": "TGI", "setting": "HCT-15 colon", "value": 2.73, "unit": "µM"}, {"measurement": "GI50", "setting": "NCI-H460 lung", "value": 1.28, "unit": "µM"}, {"measurement": "TGI", "setting": "NCI-H460 lung", "value": 2.7, "unit": "µM"}, {"measurement": "GI50", "setting": "MDA-MB-231 breast", "value": 1.63, "unit": "µM"}, {"measurement": "TGI", "setting": "MDA-MB-231 breast", "value": 3.16, "unit": "µM"}, {"measurement": "GI50", "setting": "MDA-MB-435", "value": 1.41, "unit": "µM"}, {"measurement": "TGI", "setting": "MDA-MB-435", "value": 2.81, "unit": "µM"}]}]}
